Test results from patent US20250241926A1, “HETEROCYCLIC COMPOUNDS FOR USE IN THE TREATMENT OF CANCER” (ARTIOS PHARMA LIMITED, priority 2021, published 2025).

molecular target: T1, Human Polθ polymerase domain (aa1820-2590) (Homo sapiens, UniProt O75417); assay: Polθ Polymerase Domain Kinact/Kl Assay (PicoGreen); type: biochemical; details: covalent inhibitors, kobs vs [I] fit, 0.8 nM Polθ, 100 nM DNA substrate, read-out: Kinact/KI
T1 construct: Human Polθ polymerase domain (aa1820-2590) was expressed in E. Coli; made in house; host or cells: E. coli
T1 sequence (O75417 1820-2590): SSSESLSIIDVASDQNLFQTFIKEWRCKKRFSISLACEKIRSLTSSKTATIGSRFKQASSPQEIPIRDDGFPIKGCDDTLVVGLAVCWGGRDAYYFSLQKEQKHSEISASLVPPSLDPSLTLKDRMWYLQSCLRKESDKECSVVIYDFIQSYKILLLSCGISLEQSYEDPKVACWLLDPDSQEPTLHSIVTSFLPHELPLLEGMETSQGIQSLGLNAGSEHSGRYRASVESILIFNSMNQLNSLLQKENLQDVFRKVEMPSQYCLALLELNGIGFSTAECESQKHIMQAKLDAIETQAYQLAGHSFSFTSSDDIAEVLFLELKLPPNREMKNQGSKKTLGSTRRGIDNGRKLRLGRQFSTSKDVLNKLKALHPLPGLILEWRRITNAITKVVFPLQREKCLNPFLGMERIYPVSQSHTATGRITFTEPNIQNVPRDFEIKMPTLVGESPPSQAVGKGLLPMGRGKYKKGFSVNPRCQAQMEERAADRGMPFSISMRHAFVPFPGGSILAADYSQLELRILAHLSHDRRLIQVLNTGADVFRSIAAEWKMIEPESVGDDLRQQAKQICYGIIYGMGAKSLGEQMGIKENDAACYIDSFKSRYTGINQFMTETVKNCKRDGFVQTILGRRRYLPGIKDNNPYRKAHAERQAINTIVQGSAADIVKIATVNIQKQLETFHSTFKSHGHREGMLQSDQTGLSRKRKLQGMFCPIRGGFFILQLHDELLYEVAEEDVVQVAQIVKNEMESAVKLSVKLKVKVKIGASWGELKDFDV
Procedure, shortened: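 E. coli-expressed enzyme (0.8 nM final) was run with 100 nM annealed DNA substrate and dNTPs in Tris pH 7.5 buffer (1% DMSO), with EDTA stops across a time course up to 60 min. Synthesised DNA was read by PicoGreen fluorescence. kobs per inhibitor concentration was fitted from the time courses, and Kinact and KI came from the kobs-vs-[I] plot.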

kinact/KI | Structure (SMILES)
1e+06 M⁻¹ s⁻¹ | Cc1cc(C(F)(F)F)c(C#N)c(N[C@H]2CCN(CCCN3CCN(C(=O)/C=C/CN(C)C)CC3)c3cc(F)ccc3N(C)C2=O)n1 [Example 39, (S,E)-2-((6-(3-(4-(4-(Dimethylamino)but-2-enoyl)piperazin-1-yl)propyl)-8-fluoro-1-methyl-2-oxo-1,2,3,4,5,6-hexahydrobenzo[b][1,4]diazocin-3-yl)amino)-6-methyl-4-(trifluoromethyl)nicotinonitrile]
3e+06 M⁻¹ s⁻¹ | Cc1cc(C(F)(F)F)c(C#N)c(N[C@H]2CCN(CCCOC3CN(C(=O)/C=C/CN(C)C)C3)c3c(F)cccc3N(C)C2=O)n1 [Example 40, (S,E)-2-((6-(3-((1-(4-(Dimethylamino)but-2-enoyl)azetidin-3-yl)oxy)propyl)-7-fluoro-1-methyl-2-oxo-1,2,3,4,5,6-hexahydrobenzo[b][1,4]diazocin-3-yl)amino)-6-methyl-4-(trifluoromethyl)nicotinonitrile]
1.4e+06 M⁻¹ s⁻¹ | Cc1cc(C(F)(F)F)c(C#N)c(N[C@H]2CCN(CCCOC3CN(C(=O)/C=C/CN(C)C)C3)c3ccccc3N(C)C2=O)n1 [Example 41, (S, E)-2-((6-(3-((1-(4-(Dimethylamino)but-2-enoyl)azetidin-3-yl)oxy)propyl)-1-methyl-2-oxo-1,2,3,4,5,6-hexahydrobenzo[b][1,4]diazocin-3-yl)amino)-6-methyl-4-(trifluoromethyl)nicotinonitrile]
820000 M⁻¹ s⁻¹ | Cc1cc(C(F)(F)F)c(C#N)c(N[C@H]2CCN(CCCOC3CN(C(=O)/C=C/CN(C)C)C3)c3cc(F)ccc3N(C)C2=O)n1 [Example 42, (S,E)-2-((6-(3-((1-(4-(Dimethylamino)but-2-enoyl)azetidin-3-yl)oxy)propyl)-8-fluoro-1-methyl-2-oxo-1,2,3,4,5,6-hexahydrobenzo[b][1,4]diazocin-3-yl)amino)-6-methyl-4-(trifluoromethyl)nicotinonitrile]
900000 M⁻¹ s⁻¹ | Cc1cc(C(F)(F)F)c(C#N)c(N[C@H]2CCN(CCCOC3CN(C(=O)/C=C/CN(C)C)C3)c3cc(F)cc(F)c3N(C)C2=O)n1 [Example 43, (S,E)-2-((6-(3-((1-(4-(Dimethylamino)but-2-enoyl)azetidin-3-yl)oxy)propyl)-8,10-difluoro-1-methyl-2-oxo-1,2,3,4,5,6-hexahydrobenzo[b][1,4]diazocin-3-yl)amino)-6-methyl-4-(trifluoromethyl)nicotinonitrile]
1.3e+06 M⁻¹ s⁻¹ | Cc1cc(C(F)(F)F)c(C#N)c(N[C@H]2CCN(CCCOC3CN(C(=O)/C=C/CN(C)C)C3)c3c(Cl)cccc3N(C)C2=O)n1 [Example 44, (S,E)-2-((7-Chloro-6-(3-((1-(4-(dimethylamino)but-2-enoyl)azetidin-3-yl)oxy)propyl)-1-methyl-2-oxo-1,2,3,4,5,6-hexahydrobenzo[b][1,4]diazocin-3-yl)amino)-6-methyl-4-(trifluoromethyl)nicotinonitrile]
110000 M⁻¹ s⁻¹ | Cc1cc(C(F)(F)F)c(C#N)c(N[C@H]2CCN(CCOC3CCN(C(=O)/C=C/CN(C)C)CC3)c3c(F)cccc3N(C)C2=O)n1 [Example 49, (S,E)-2-((6-(2-((1-(4-(Dimethyl-amino)but-2-enoyl)piperidin-4-yl)oxy)ethyl)-7-fluoro-1-methyl-2-oxo-1,2,3,4,5,6-hexahydrobenzo [b][1,4]diazocin-3-yl)amino)-6-methyl-4-(tri-fluoromethyl)-nicotinonitrile]
110000 M⁻¹ s⁻¹ | Cc1cc(C(F)(F)F)c(C#N)c(N[C@H]2CCN(CCOC3CN(C(=O)/C=C/CN(C)C)C3)c3ccccc3N(C)C2=O)n1 [Example 50, (S,E)-2-((6-(2-((1-(4-(Dimethylamino)but-2-enoyl)azetidin-3-yl)oxy)ethyl)-1-methyl-2-oxo-1,2,3,4,5,6-hexahydrobenzo[b][1,4]diazocin-3-yl)amino)-6-methyl-4-(trifluoromethyl)nicotinonitrile]
70000 M⁻¹ s⁻¹ | C=CC(=O)N1CC(OCCN2CC[C@H](Nc3nc(C)cc(C(F)(F)F)c3C#N)C(=O)N(C)c3ccccc32)C1 [Example 51, (S)-2-((6-(2-((1-Acryloylazetidin-3-yl)oxy)ethyl)-1-methyl-2-oxo-1,2,3,4,5,6-hexahydrobenzo[b][1,4]diazocin-3-yl)amino)-6-methyl-4-(trifluoromethyl)nicotinonitrile]
150000 M⁻¹ s⁻¹ | C=CC(=O)N1CC2(CC(CN3CC[C@H](Nc4nc(C)cc(C(F)(F)F)c4C#N)C(=O)N(C)c4ccccc43)C2)C1 [Example 52, (S)-2-((6-((2-Acryloyl-2-azaspiro[3.3]heptan-6-yl)methyl)-1-methyl-2-oxo-1,2,3,4,5,6-hexahydrobenzo[b][1,4]diazocin-3-yl)amino)-6-methyl-4-(trifluoromethyl)nicotinonitrile]
500000 M⁻¹ s⁻¹ | C=CC(=O)N1CC(OCCCN2CC[C@H](Nc3nc(C)cc(C(F)(F)F)c3C#N)C(=O)N(C)c3ccccc32)C1 [Example 53, (S)-2-((6-(3-((1-Acryloylazetidin-3-yl)oxy)propyl)-1-methyl-2-oxo-1,2,3,4,5,6-hexahydrobenzo[b][1,4]diazocin-3-yl)amino)-6-methyl-4-(trifluoromethyl)nicotinonitrile]
700000 M⁻¹ s⁻¹ | Cc1cc(C(F)(F)F)c(C#N)c(N[C@H]2CCN(CCCOC3CN(C(=O)/C=C/[C@@H]4CCCN4C)C3)c3c(F)cccc3N(C)C2=O)n1 [Example 54, 2-(((S)-7-Fluoro-1-methyl-6-(3-((1-((E)-3-((S)-1-methylpyrrolidin-2-yl)acryloyl)azetidin-3-yl)oxy)propyl)-2-oxo-1,2,3,4,5,6-hexahydrobenzo[b][1,4]diazocin-3-yl)amino)-6-methyl-4-(trifluoromethyl)nicotinonitrile]
810000 M⁻¹ s⁻¹ | Cc1cc(C(F)(F)F)c(C#N)c(N[C@H]2CCN(CCCOC3CN(C(=O)/C=C/[C@H]4CCCN4C)C3)c3c(F)cccc3N(C)C2=O)n1 [Example 55, 2-(((S)-7-Fluoro-1-methyl-6-(3-((1-((E)-3-((R)-1-methylpyrrolidin-2-yl)acryloyl)azetidin-3-yl)oxy)propyl)-2-oxo-1,2,3,4,5,6-hexahydrobenzo[b][1,4]diazocin-3-yl)amino)-6-methyl-4-(trifluoromethyl)nicotinonitrile]
1.1e+07 M⁻¹ s⁻¹ | COCCN(C)C/C=C/C(=O)N1CC(OCCCN2CC[C@H](Nc3nc(C)cc(C(F)(F)F)c3C#N)C(=O)N(C)c3cccc(F)c32)C1 [Example 56, (S,E)-2-((7-Fluoro-6-(3-((1-(4-((2-methoxyethyl)(methyl)amino)but-2-enoyl)azetidin-3-yl)oxy)propyl)-1-methyl-2-oxo-1,2,3,4,5,6-hexahydrobenzo[b][1,4]diazocin-3-yl)amino)-6-methyl-4-(trifluoromethyl)nicotinonitrile]
300000 M⁻¹ s⁻¹ | C#CCN(C)C/C=C/C(=O)N1CC(OCCCN2CC[C@H](Nc3nc(C)cc(C(F)(F)F)c3C#N)C(=O)N(C)c3cccc(F)c32)C1 [Example 57, (S,E)-2-((7-Fluoro-1-methyl-6-(3-((1-(4-(methyl(prop-2-yn-1-yl)amino)but-2-enoyl)azetidin-3-yl)oxy)propyl)-2-oxo-1,2,3,4,5,6-hexahydrobenzo[b][1,4]diazocin-3-yl)amino)-6-methyl-4-(trifluoromethyl)nicotinonitrile]
